The structures appear in SMILES notation. pIC50, pKi: −log10 of the molar value. Active and inactive are the calls of the source. The rule behind the calls is not given here.

In series [1] the test system is Rattus norvegicus. Nature of the series: Antiamnesic activity against scopolamine-induced dementia in Wistar rat assessed as basal latency period to reach shock free zone at 0.5 mg/kg, po. In kind it is functional.
In series [2] the test system is Rattus norvegicus. In words: Antiamnesic activity against scopolamine-induced dementia in Wistar rat assessed as latency period to improve memory at 0.5 mg/kg, po. In kind it is functional.
The test system of series [3] is Rattus norvegicus. Nature of the series: Antiamnesic activity against scopolamine-induced memory loss and learning impairment in Wistar rat assessed as transfer latency period to reach from open arm to closed arm ends measured on day 1 at 0.5 mg/kg, po by elevated plus maze test. Format: functional.
The subject of series [4] is Rattus norvegicus. In words: Antiamnesic activity against scopolamine-induced memory loss and learning impairment in Wistar rat assessed as transfer latency period to reach from open arm to closed arm ends measured on day 2 at 0.5 mg/kg, po by elevated plus maze test. In kind it is functional.
Series [5] relates to Rattus norvegicus. Nature of the series: Antiamnesic activity against scopolamine-induced memory loss and learning impairment in Wistar rat at 0.5 mg/kg, po by Y maze test. In kind it is functional, organism-based. More on the design: dose 0.5 mg/kg.
Series [6] deals with Rattus norvegicus. Nature of the series: Toxicity in po dosed Wistar rat assessed as mortality within 1 week. As to conditions: in vivo, 168 h. In kind it is organism-based.
For series [7], the system named is Rattus norvegicus. In words: Antiamnesic activity against scopolamine-induced dementia in Wistar rat assessed as decrease in occurrence of mistakes at 0.5 mg/kg, po. Format: functional, organism-based. Details: dose 0.5 mg/kg.
For series [8], the system named is Rattus norvegicus. In words: Cholinergic toxicity in po dosed Wistar rat assessed as occurrence of salivation after 1 week. As to conditions: in vivo, 168 h. In kind it is organism-based.
Series [9] relates to Rattus norvegicus. In words: Cholinergic toxicity in po dosed Wistar rat assessed as occurrence of defecation after 1 week. Format: organism-based. Conditions: in vivo, 168 h.
In series [10] the target is T1, Muscarinic acetylcholine receptor M1 (Rattus norvegicus, UniProt P08482).
T1 sequence (P08482 whole entry): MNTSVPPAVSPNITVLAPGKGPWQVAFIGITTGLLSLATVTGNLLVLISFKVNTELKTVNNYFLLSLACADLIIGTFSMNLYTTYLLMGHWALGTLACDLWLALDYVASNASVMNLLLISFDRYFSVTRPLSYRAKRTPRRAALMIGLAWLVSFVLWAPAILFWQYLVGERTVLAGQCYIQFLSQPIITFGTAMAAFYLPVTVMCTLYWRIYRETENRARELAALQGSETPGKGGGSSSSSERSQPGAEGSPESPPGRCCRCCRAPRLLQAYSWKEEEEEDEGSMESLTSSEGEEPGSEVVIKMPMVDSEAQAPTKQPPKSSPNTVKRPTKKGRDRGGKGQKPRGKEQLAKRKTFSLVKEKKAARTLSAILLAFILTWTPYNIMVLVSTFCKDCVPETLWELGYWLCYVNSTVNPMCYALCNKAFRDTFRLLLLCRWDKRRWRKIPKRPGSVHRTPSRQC
In words: Displacement of [3H]QNB from muscarinic M1 receptor in Wistar rat brain cortex after 2 hrs by liquid scintillation counting.

Series [11] has as its target T2, Muscarinic acetylcholine receptor M1 (Rattus norvegicus) (UniProt P08482).
T2 sequence (whole entry): T1 sequence (P08482 whole entry)
Nature of the series: Agonist activity at muscarinic M1 receptor in Wistar rat cerebral cortex assessed as [3H]myoinositol (1,4,5)-triphosphate level per gram of protein at 100 uM after 1 hr by liquid scintillation counting. In kind it is functional, tissue-based.

In the case of `COC(=O)C1=CCCN(C)C1` [ARECOLINE], the Time with Rattus norvegicus [1] turned out to be 10 s; in the series on Rattus norvegicus [2], 5 s; with Rattus norvegicus [3] it was 52 s; in the series on Rattus norvegicus [4] it was 36 s. Further, in the series on Rattus norvegicus [5], the outcome was Active. Further, in the series on Rattus norvegicus [6], the Activity result is on record as “Non-toxic”.
On to `CN1CCC=C(C2CN(C(=O)c3ccc(Cl)cc3)CCO2)C1` (stereo unspecified), for which the result in the series on Rattus norvegicus [7] and in the series with Rattus norvegicus [5] was Active. For the same molecule, the Time in the series on Rattus norvegicus [1] is listed as 7 s; in the series on Rattus norvegicus [2] it was 3 s; in the series with Rattus norvegicus [3], 37 s; with Rattus norvegicus [4], 17 s. Besides, the Activity result in the series on Rattus norvegicus [8], in the series on Rattus norvegicus [9] and with Rattus norvegicus [6] was “Non-toxic” each time.
In the case of `CN1CCC=C(C2CN(C(=O)c3ccc([N+](=O)[O-])cc3)CCO2)C1` (stereo unspecified), the result in the series on Rattus norvegicus [7] and with Rattus norvegicus [5] was Active. Moreover, the Time in the series on Rattus norvegicus [1] worked out at 10 s; with Rattus norvegicus [2] it was 5 s; with Rattus norvegicus [3], 64 s; with Rattus norvegicus [4] it was 52 s. Moreover, the Activity entry in the series on Rattus norvegicus [8], in the series on Rattus norvegicus [9] and in the series with Rattus norvegicus [6] was “Non-toxic” each time.
With `CN1CCC=C(C2CN(C(=O)c3cc(Cl)ccc3Cl)CCO2)C1` (stereo unspecified), the outcome with Rattus norvegicus [7] and in the series on Rattus norvegicus [5] was Active. Moreover, the Time in the series with Rattus norvegicus [1] was determined as 11 s; with Rattus norvegicus [2], 9 s; with Rattus norvegicus [3] it was 66 s; in the series with Rattus norvegicus [4] it was 53 s. Also, the Activity result with Rattus norvegicus [8], with Rattus norvegicus [9] and in the series on Rattus norvegicus [6] was “Non-toxic” in each case.
As for `CN1CCC=C(C2CN(C(=O)c3ccccc3)CCO2)C1` (stereo unspecified), the result with Rattus norvegicus [7] and with Rattus norvegicus [5] was Active. In addition, the Time in the series on Rattus norvegicus [1] was found to be 10 s; in the series with Rattus norvegicus [2], 6 s; with Rattus norvegicus [3], 53 s; in the series on Rattus norvegicus [4], 35 s. Besides, the Activity result with Rattus norvegicus [8], with Rattus norvegicus [9] and in the series on Rattus norvegicus [6] was “Non-toxic” in each case.
Molecule `CN1CCC=C(C2CN(C(=O)c3ccccc3[N+](=O)[O-])CCO2)C1` (stereo unspecified) showed a pIC50 in [10] of 3.21. For the same molecule, the pKi in [10] is 3.90. In addition, the Activity was 0.65 pmol in series [11], “Non-toxic” with Rattus norvegicus [8], “Non-toxic” in the series with Rattus norvegicus [9] and “Non-toxic” in the series with Rattus norvegicus [6]. Moreover, the outcome with Rattus norvegicus [7] and with Rattus norvegicus [5] was Active. Moreover, the Time in the series with Rattus norvegicus [1] was 10 s; in the series on Rattus norvegicus [2], 5 s; in the series with Rattus norvegicus [3] it was 66 s; in the series on Rattus norvegicus [4], 52 s.
Consider `Cc1ccc(C(=O)N2CCOC(C3=CCCN(C)C3)C2)cc1` (stereo unspecified), for which the result with Rattus norvegicus [7] and with Rattus norvegicus [5] was Active. Also, the Time in the series on Rattus norvegicus [1] is on record as 8 s; in the series on Rattus norvegicus [2] it was 4 s; in the series with Rattus norvegicus [3], 33 s; in the series with Rattus norvegicus [4] it was 13 s. Also, the Activity entry with Rattus norvegicus [8], in the series with Rattus norvegicus [9] and in the series on Rattus norvegicus [6] was “Non-toxic” throughout.
With `CN1CCC=C(C2CN(C(=O)c3cccc([N+](=O)[O-])c3)CCO2)C1` (stereo unspecified), the result in the series on Rattus norvegicus [7] and with Rattus norvegicus [5] was Active. For the same molecule, the Time with Rattus norvegicus [1] is listed as 10 s; in the series on Rattus norvegicus [2] it was 4 s; in the series on Rattus norvegicus [3], 64 s; in the series with Rattus norvegicus [4], 47 s. Also, the Activity entry in the series with Rattus norvegicus [8], in the series with Rattus norvegicus [9] and in the series on Rattus norvegicus [6] was “Non-toxic” throughout.
`CN1CCC=C(C2CN(C(=O)c3ccc(C(C)(C)C)cc3)CCO2)C1` (stereo unspecified): the result in the series with Rattus norvegicus [7] and in the series with Rattus norvegicus [5] was Active. Also, the Time in the series on Rattus norvegicus [1] was 11 s; in the series on Rattus norvegicus [2] it was 6 s; in the series with Rattus norvegicus [3], 65 s; in the series with Rattus norvegicus [4], 53 s. Also, the Activity result with Rattus norvegicus [8], with Rattus norvegicus [9] and in the series on Rattus norvegicus [6] was “Non-toxic” throughout.

These data come from ChEMBL document CHEMBL1157004 (Bioorg Med Chem, 2009).
